From patent US10781206B2, “Tetrahydropyrazolopyridine compounds for the treatment of infectious diseases” (Hoffmann-La Roche Inc., priority 2017, dated 2020)

System: HBV
Assay: HBV inhibition assay in HepG2.2.15 cells (extracellular HBV DNA by qPCR)
Type: cell-based
Conditions: Hepatitis B virus, 120 h, extracellular HBV DNA in culture supernatant by qPCR, five days after compound treatment
Excerpt: Example 19: HBV Inhibition Assays
Cell Line and Culture Conditions:
HepG2.2.15 is a stably-transfected cell line containing the HBV genome. It is derived from the hepatoblastoma cell line Hep G2 (American Type Culture Collection, ATCC® HB-8065™) by the published procedures described in reference: MA Selles et al. Proc. Natl. Acad. Sci. USA 1987, 84, 1005-1009. The cell line was maintained in Dulbecco's modified Eagle's medium and nutrient mixture F-12 (DMEM/F-12, Gibco, Cat. #: 11320-033) supplemented with 10% fetal bovine serum (Gibco, Cat. #: 10099-141), 100 U/mL penicillin, 100 μg/mL streptomycin (Gibco, Cat. #: 15140-122), and 0.3 mg/mL of G418 Sulfate (Gibco, Cat. #: 10131-027).
Anti-HBV Activity In Vitro:
HepG2.2.15 cells were seeded into 96-well plates at a density of 3×10^4 cells per well in culture media of 100 μL DMEM/F-12 supplemented with 2.5% fetal bovine serum, 100 U/mL penicillin, 100 μg/mL streptomycin and cultured overnight at 37° C. The test compounds were serially half-log diluted in DMSO, then diluted 100 times in culture media. 100 μL culture media containing diluted compounds were added into the plates to reach 0.5% final concentration of DMSO in every well. Five days after compound treatment, culture supernatant was collected for further analysis.
For quantitative PCR detection of extracellular HBV DNA, culture supernatant was processed by 500 μg/mL Proteinase K (Sigma, Cat. #: P2308) digestion at 50° C. for 1 hour. After heat inactivation of the enzyme at 95° C. for 15 minutes, the samples were subjected to HBV DNA quantification by qPCR. The effective compound concentration at which HBV replication was inhibited by 50% (EC50) was determined.

SMILES | EC50
O=C(Nc1cc(F)c(F)c(F)c1)C1CCn2ncc(N3CCCC3=O)c2C1 (centres unmarked) [Example 1, 3-(2-oxopyrrolidin-1-yl)-N-(3,4,5-trifluorophenyl)-4,5,6,7-tetrahydropyrazolo[1,5-a]pyridine-5-carboxamide] | 370 nM
Cc1nc(C2CC(=O)N(c3cnn4c3CC(C(=O)Nc3cc(F)c(F)c(F)c3)CC4)C2)no1 (centres unmarked) [Example 18, 3-[4-(5-methyl-1,2,4-oxadiazol-3-yl)-2-oxo-pyrrolidin-1-yl]-N-(3,4,5-trifluorophenyl)-4,5,6,7-tetrahydropyrazolo[1,5-a]pyridine-5-carboxamide] | 390 nM
O=C(Nc1cc(F)c(F)c(F)c1)C1CCn2ncc(N3CCNS3(=O)=O)c2C1 (centres unmarked) [Example 7, 3-(1,1-dioxo-1,2,5-thiadiazolidin-2-yl)-N-(3,4,5-trifluorophenyl)-4,5,6,7-tetrahydropyrazolo[1,5-a]pyridine-5-carboxamide] | 110 nM
CC1(C)CN(c2cnn3c2CC(C(=O)Nc2cc(F)c(F)c(F)c2)CC3)C(=O)O1 (centres unmarked) [Example 2, 3-(5,5-dimethyl-2-oxo-oxazolidin-3-yl)-N-(3,4,5-trifluorophenyl)-4,5,6,7-tetrahydropyrazolo[1,5-a]pyridine-5-carboxamide] | 300 nM
O=C(Nc1cc(F)c(F)c(F)c1)C1CCn2ncc(-c3ccc(F)cc3F)c2C1 (centres unmarked) [Example 3, 3-(2,4-difluorophenyl)-N-(3,4,5-trifluorophenyl)-4,5,6,7-tetrahydropyrazolo[1,5-a]pyridine-5-carboxamide] | 160 nM
O=C(Nc1cc(F)c(F)c(F)c1)C1CCn2ncc(N3CCCS3(=O)=O)c2C1 (centres unmarked) [Example 5, 3-(1,1-dioxo-1,2-thiazolidin-2-yl)-N-(3,4,5-trifluorophenyl)-4,5,6,7-tetrahydropyrazolo[1,5-a]pyridine-5-carboxamide] | 39 nM
O=C(Nc1ccnc(F)c1)C1CCn2ncc(-c3ccc(F)cc3F)c2C1 (centres unmarked) [Example 16, 3-(2,4-difluorophenyl)-N-(2-fluoro-4-pyridyl)-4,5,6,7-tetrahydropyrazolo[1,5-a]pyridine-5-carboxamide] | 350 nM
O=C(Nc1ccsc1)C1CCn2ncc(-c3ccc(F)cc3F)c2C1 (centres unmarked) [Example 11, 3-(2,4-difluorophenyl)-N-(3-thienyl)-4,5,6,7-tetrahydropyrazolo[1,5-a]pyridine-5-carboxamide] | 590 nM
Cc1noc(C2CC(=O)N(c3cnn4c3CC(C(=O)Nc3cc(F)c(F)c(F)c3)CC4)C2)n1 (centres unmarked) [Example 10, 3-[4-(3-methyl-1,2,4-oxadiazol-5-yl)-2-oxo-pyrrolidin-1-yl]-N-(3,4,5-trifluorophenyl)-4,5,6,7-tetrahydropyrazolo[1,5-a]pyridine-5-carboxamide] | 330 nM
O=C(Nc1cc(F)c(F)c(F)c1)C1CCn2ncc(N3CCN(Cc4ccccc4)S3(=O)=O)c2C1 (centres unmarked) [Example 6, 3-(5-benzyl-1,1-dioxo-1,2,5-thiadiazolidin-2-yl)-N-(3,4,5-trifluorophenyl)-4,5,6,7-tetrahydropyrazolo[1,5-a]pyridine-5-carboxamide] | 240 nM
O=C(Nc1cc(F)c(F)c(F)c1)C1CCn2ncc(C3CCCC3)c2C1 (centres unmarked) [Example 4, 3-cyclopentyl-N-(3,4,5-trifluorophenyl)-4,5,6,7-tetrahydropyrazolo[1,5-a]pyridine-5-carboxamide] | 150 nM
O=C(Nc1ccc(F)c(C(F)(F)F)c1)C1CCn2ncc(-c3ccc(F)cc3F)c2C1 (centres unmarked) [Example 12, 3-(2,4-difluorophenyl)-N-[4-fluoro-3-(trifluoromethyl)phenyl]-4,5,6,7-tetrahydropyrazolo[1,5-a]pyridine-5-carboxamide] | 870 nM
O=C(Nc1cc(F)nc(F)c1)C1CCn2ncc(-c3ccc(F)cc3F)c2C1 (centres unmarked) [Example 15, 3-(2,4-difluorophenyl)-N-(2,6-difluoro-4-pyridyl)-4,5,6,7-tetrahydropyrazolo[1,5-a]pyridine-5-carboxamide] | 450 nM
N#CC1CC(=O)N(c2cnn3c2CC(C(=O)Nc2cc(F)c(F)c(F)c2)CC3)C1 (centres unmarked) [Example 8, 3-(4-cyano-2-oxo-pyrrolidin-1-yl)-N-(3,4,5-trifluorophenyl)-4,5,6,7-tetrahydropyrazolo[1,5-a]pyridine-5-carboxamide] | 190 nM
Cc1cc(NC(=O)C2CCn3ncc(-c4ccc(F)cc4F)c3C2)ccc1F (centres unmarked) [Example 14, 3-(2,4-difluorophenyl)-N-(4-fluoro-3-methyl-phenyl)-4,5,7-tetrahydropyrazolo[1,5-a]pyridine-5-carboxamide] | 89 nM
N#Cc1cc(NC(=O)C2CCn3ncc(-c4ccc(F)cc4F)c3C2)ccc1F (centres unmarked) [Example 13, N-(3-cyano-4-fluoro-phenyl)-3-(2,4-difluorophenyl)-4,5,6,7-tetrahydropyrazolo[1,5-a]pyridine-5-carboxamide] | 210 nM
O=C(Nc1cc(F)c(F)c(F)c1)C1CCn2ncc(N3CCOCC3=O)c2C1 (centres unmarked) [Example 9, 3-(3-oxomorpholin-4-yl)-N-(3,4,5-trifluorophenyl)-4,5,6,7-tetrahydropyrazolo[1,5-a]pyridine-5-carboxamide] | 840 nM
